Reference: US6949571B2, “1,2-dihydropyridine compounds, process for preparation of the same and use thereof” (Eisai Co., Ltd., priority 2000, dated 2005)

System: AMPA receptor
Conditions: Table 1; primary culture of rat embryo cerebral cortex nerve cells, 2 μM AMPA, 1 μM MK-801
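Note: primary rat embryonic cortical neurons grown on an astrocyte layer in 96-well plates, used after at least 8 to 10 days in culture, Fura2-AM fluorescence ratio at 340/380 nm excitation.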

Row | Compound | IC50
1 | CS(=O)(=O)Nc1ccccc1-c1cc(-c2ccccc2C#N)c(=O)n(-c2ccccc2)c1 [Example 3, 3-(2-Cyanophenyl)-5-(2-methylsulfonylaminophenyl)-1-phenyl-1,2-dihydropyridin-2-one] | 300 nM
2 | N#Cc1ccccc1-c1cc(-c2ccccn2)cn(-c2ccc(OCCOCc3ccccc3)nc2)c1=O [Example 114, 3-(2-Cyanophenyl)-5-(2-pyridyl)-1-(2-benzyloxyethoxypyridin-5-yl)-1,2-dihydropyridin-2-one] | 600 nM
3 | N#Cc1ccccc1-c1cc(-c2ccccn2)cn(-c2cccc(F)c2)c1=O [Example 92, 3-(2-Cyanophenyl)-5-(2-pyridyl)-1-(3-fluorophenyl)-1,2-dihydropyridin-2-one] | 50 nM
4 | N#Cc1ccccc1-c1cc(-c2ccccn2)cn(-c2cccc(C=O)c2)c1=O [Example 20, 3-(2-Cyanophenyl)-5-(2-pyridyl)-1-(3-formylphenyl)-1,2-dihydropyridin-2-one] | 40 nM
5 | N#Cc1ccccc1-c1cc(-c2ccccc2C#N)c(=O)n(-c2ccccc2)c1 [Example 36, 3-(2-Cyanophenyl)-5-(2-cyanophenyl)-1-phenyl-1,2-dihydropyridin-2-one] | 1100 nM
6 | N#Cc1ccccc1-c1cc(-c2ccccn2)cn(-c2ccc(C=O)cc2)c1=O [Example 100, 3-(2-Cyanophenyl)-5-(2-pyridyl)-1-(4-formylphenyl)-1,2-dihydropyridin-2-one] | 400 nM
7 | N#Cc1ccccc1-c1cc(-c2ccccn2)cn(-c2ccccc2C#N)c1=O [Example 110, 3-(2-Cyanophenyl)-5-(2-pyridyl)-1-(2-cyanophenyl)-1,2-dihydropyridin-2-one] | 2000 nM
8 | COc1ncccc1-c1cc(-c2ccccn2)cn(-c2ccccc2)c1=O [Example 81, 3-(2-Methoxy-3-pyridyl)-5-(2-pyridyl)-1-phenyl-1,2-dihydropyridin-2-one] | 2700 nM
9 | N#Cc1ccccc1-c1cc(-c2ccccn2)cn(-c2ccc(N3CCCC3)nc2)c1=O [Example 112, 3-(2-Cyanophenyl)-5-(2-pyridyl)-1-[2-(pyrrolidin-1-yl)-pyridin-5-yl]-1,2-dihydropyridin-2-one] | 600 nM
10 | CC(=O)OCc1cccc(-n2cc(-c3ccccn3)cc(-c3ccccc3C#N)c2=O)c1 [Example 25, 3-(2-Cyanophenyl)-5-(2-pyridyl)-1-(3-acetoxymethylphenyl)-1,2-dihydropyridin-2-one] | 30 nM
11 | N#Cc1ccccc1-c1cc(-c2ccccc2)cn(-c2ccccn2)c1=O [Example 39, 3-(2-Cyanophenyl)-5-phenyl-1-(2-pyridyl)-1,2-dihydropyridin-2-one] | 300 nM
12 | N#Cc1ccccc1-c1cc(-c2ccccc2[N+](=O)[O-])cn(-c2ccccc2)c1=O [Example 1, 3-(2-Cyanophenyl)-5-(2-nitrophenyl)-1-phenyl-1,2-dihydropyridin-2-one] | 800 nM

Same assay, conditions: Table 2; suppression of AMPA-induced calcium influx into nerve cells

Row | Compound | IC50
13 | Cc1ccc(-c2cc(-c3ccccc3C#N)c(=O)n(-c3ccccc3)c2)nc1 [Example 196, 3-(2-Cyanophenyl)-5-(5-methylpyridin-2-yl)-1-phenyl-1,2-dihydropyridin-2-one] | 300 nM
14 | O=c1c(-c2cc3ccccc3n2S(=O)(=O)c2ccccc2)cc(-c2ccccn2)cn1-c1ccccc1 [Example 293, 3-[(1-Benzenesulfonyl)indol-2-yl]-1-phenyl-5-(2-pyridyl)-1,2-dihydropyridin-2-one] | 3300 nM

Second part, the compound after the results:

Row | IC50 | Compound
15 | 3400 nM | CN(C)CCOc1ccc(-c2cc(-c3ccccn3)cn(-c3ccccc3)c2=O)cc1 [Example 248, 3-[4-(Dimethylaminoethoxy)phenyl]-1-phenyl-5-(2-pyridyl)-1,2-dihydropyridin-2-one]
16 | 2300 nM | N#Cc1ccccc1-c1cc(-c2ccccn2)cn(C2CCCC2)c1=O [Example 171, 3-(2-Cyanophenyl)-1-cyclopentyl-5-(2-pyridyl)-1,2-dihydropyridin-2-one]
17 | 1800 nM | CS(=O)(=O)Nc1ccc(-c2cc(-c3ccccn3)cn(-c3ccccc3)c2=O)cc1 [Example 227, 3-[4-(Methanesulfonylamino)phenyl]-1-phenyl-5-(2-pyridyl)-1,2-dihydropyridin-2-one]
18 | 2800 nM | CC(C)(C)NS(=O)(=O)c1ccc(-c2cc(-c3ccccn3)cn(-c3ccccc3)c2=O)cc1 [Example 278, 3-[4-(tert-Butylaminosulfonyl)phenyl]-1-phenyl-5-(2-pyridyl)-1,2-dihydropyridin-2-one]
19 | 5600 nM | O=c1c(-c2ccc(Cl)nc2)cc(-c2ccccn2)cn1-c1ccccc1 [Example 287, 3-(2-Chloropyridin-5-yl)-5-(2-pyridyl)-1-phenyl-1,2-dihydropyridin-2-one]
20 | 2800 nM | O=c1c(-c2ccc3ccccc3c2)cc(-c2ccccn2)cn1-c1ccccc1 [Example 284, 3-(2-Naphthyl)-5-(2-pyridyl)-1-phenyl-1,2-dihydropyridin-2-one]
21 | 1100 nM | O=c1c(C2CCCCC2)cc(-c2ccccn2)cn1-c1ccccc1 [Example 192, 3-Cyclohexyl-5-(2-pyridyl)-1-phenyl-1,2-dihydropyridin-2-one]
22 | 900 nM | CC(=O)N1CCN(Cc2cccc(-n3cc(-c4ccccn4)cc(-c4ccccc4C#N)c3=O)c2)CC1 [Example 251, 1-[3-[(4-Acetylpiperazino)methyl]phenyl]-3-(2-cyanophenyl)-5-(2-pyridyl)-1,2-dihydropyridin-2-one]
23 | 900 nM | N#Cc1ccccc1-c1cc(-c2ccccn2)cn(-c2cccc(CN3CCCC3)c2)c1=O [Example 250, 3-(2-Cyanophenyl)-1-[3-(pyrrolidinomethyl)phenyl]-5-(2-pyridyl)-1,2-dihydropyridin-2-one]
24 | 40 nM | Cc1cccc(C)c1-c1cc(-c2ccccn2)cn(-c2cccnc2)c1=O [Example 135, 3-(2,6-Dimethylphenyl)-5-(2-pyridyl)-1-(3-pyridyl)-1,2-dihydropyridin-2-one]
25 | 600 nM | O=c1c(-c2ccc(O)cc2)cc(-c2ccccn2)cn1-c1ccccc1 [Example 238, 3-(4-Hydroxyphenyl)-1-phenyl-5-(2-pyridyl)-1,2-dihydropyridin-2-one]
26 | 9500 nM | CS(=O)(=O)Nc1ccccc1-c1cc(-c2ccccn2)cn(-c2ccccc2)c1=O [Example 226, 3-[2-(Methylsulfonylamino)phenyl]-1-phenyl-5-(2-pyridyl)-1,2-dihydropyridin-2-one]
27 | 4700 nM | O=c1c(-c2cnccn2)cc(-c2ccccn2)cn1-c1ccccc1 [Example 253, 1-Phenyl-3-(2-pyrazyl)-5-(2-pyridyl)-1,2-dihydropyridin-2-one]
28 | 4000 nM | CC(=O)Nc1ccccc1-c1cc(-c2ccccn2)cn(-c2ccccc2)c1=O [Example 230, 3-[2-(Acetylamino)phenyl]-1-phenyl-5-(2-pyridyl)-1,2-dihydropyridin-2-one]
29 | 6100 nM | O=c1c(-c2ccc([N+](=O)[O-])cc2)cc(-c2ccccn2)cn1-c1ccccc1 [Example 275, 3-(4-Nitrophenyl)-1-phenyl-5-(2-pyridyl)-1,2-dihydropyridin-2-one]
30 | 300 nM | O=Cc1sccc1-c1cc(-c2ccccn2)cn(-c2ccccc2)c1=O [Example 286, 3-(2-Formylthiophen-3-yl)-5-(2-pyridyl)-1-phenyl-1,2-dihydropyridin-2-one]
31 | 4000 nM | CCS(=O)(=O)c1ccc(-n2cc(-c3ccccn3)cc(-c3ccccc3C#N)c2=O)cn1 [Example 152, 3-(2-Cyanophenyl)-5-(2-pyridyl)-1-(2-ethylsulfonylpyridin-5-yl)-1,2-dihydropyridin-2-one]
32 | 300 nM | N#Cc1ccccc1-c1cc(-c2ccccn2)cn(-c2cccc(OCCCCN3CCCCC3)c2)c1=O [Example 249, 3-(2-Cyanophenyl)-1-[3-(4-piperidinobutyl-1-oxy)phenyl]-5-(2-pyridyl)-1,2-dihydropyridin-2-one]
33 | 4400 nM | N#Cc1ccccc1-c1cc(-c2cccc(C(N)=O)n2)cn(-c2ccccc2)c1=O [Example 235, 5-[(6-Aminocarbonyl)pyridin-2-yl]-3-(2-cyanophenyl)-1-phenyl-1,2-dihydropyridin-2-one]
34 | 700 nM | N#Cc1ncccc1-c1cc(-c2ncccn2)cn(-c2cccnc2)c1=O [Example 265, 3-(2-Cyanopyridin-3-yl)-1-(3-pyridyl)-5-(2-pyrimidinyl)-1,2-dihydropyridin-2-one]
35 | 300 nM | N#Cc1ccccc1-c1cc(-c2ccccn2)cn(-c2ccc3nc(N)sc3c2)c1=O [Example 166, 1-(2-Aminobenzothiazol-6-yl)-3-(2-cyanophenyl)-5-(2-pyridyl)-1,2-dihydropyridin-2-one]

Same assay, conditions: Table 3; primary culture of rat embryo cerebral cortex nerve cells, 2 μM AMPA, 1 μM MK-801

Row | Compound | IC50
36 | O=c1c(-c2nc3cc(Cl)c(Cl)cc3[nH]2)cc(-c2ccccn2)cn1-c1ccccc1 [Example 354, 3-(5.6-Dichloro-1H-benzimidazol-2-yl)-5-(2-pyridyl)-1-phenyl-1,2-dihydropyridin-2-one] | 1500 nM
37 | O=c1c(N(Cc2ccccc2)Cc2ccccc2)cc(-c2ccccn2)cn1-c1ccccc1 [Example 314, 3-Dibenzylamino-1-phenyl-5-(2-pyridyl)-1,2-dihydropyridin-2-one] | 4600 nM
38 | N#Cc1ccccc1-c1cc(-c2ccccn2)cn(-c2cccc(O)c2)c1=O [Example 315, 3-(2-Cyanophenyl)-1-(3-hydroxyphenyl)-5-(2-pyridyl)-1,2-dihydropyridin-2-one] | 80 nM
39 | O=c1c(-c2ccccc2Cl)cc(Sc2ccc(Cl)cc2)cn1-c1cccnc1 [Example 385, 3-(2-Chlorophenyl)-5-(4-chlorophenylthio)-1-(3-pyridyl)-1,2-dihydropyridin-2-one] | 1100 nM
40 | N#Cc1ccccc1-c1cc(-c2nc3cnccc3[nH]2)cn(-c2ccccc2)c1=O [Example 362, 3-(2-Cyanophenyl)-5-(1H-imidazo[4,5-c]pyridin-2-yl)-1-phenyl-1,2-dihydropyridin-2-one] | 3700 nM
41 | N#Cc1ccccc1-c1cc(-c2nc3cccc4c3n2CCC4)cn(-c2ccccc2)c1=O [Example 358, 3-(2-Cyanophenyl)-5-(5,6-dihydro-4H-imidazo[4,5,1-i,j]quinolin-2-yl)-1-phenyl-1,2-dihydropyridin-2-one] | 1400 nM
